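Each compound was tested at five concentrations against cells in 96-well plates for 48 hours. GI50: concentration for 50% inhibition of growth. TGI denotes the concentration required for complete inhibition of growth.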
Tests used:
Assay in all cases: DTP human tumour cell line panel, 48 h
UO-31 renal = tested on: UO-31 renal
NCI-H460 lung = tested on: NCI-H460 lung
HS 578T breast = tested on: HS 578T breast
U251 CNS = tested on: U251 CNS
A498 renal = tested on: A498 renal
BT-549 breast = tested on: BT-549 breast
SK-OV-3 ovarian = tested on: SK-OV-3 ovarian
TK-10 renal = tested on: TK-10 renal
SN12C renal = tested on: SN12C renal
HOP-92 NSCLC = tested on: HOP-92 NSCLC
MALME-3M melanoma = tested on: MALME-3M melanoma
RPMI-8226 leukemia = tested on: RPMI-8226 leukemia
NCI-H23 lung = tested on: NCI-H23 lung
OVCAR-4 ovarian = tested on: OVCAR-4 ovarian
CAKI-1 renal = tested on: CAKI-1 renal
HCT-15 colon = tested on: HCT-15 colon
ACHN renal = tested on: ACHN renal
HT29 colon = tested on: HT29 colon
MDA-MB-231 breast = tested on: MDA-MB-231 breast
T-47D breast = tested on: T-47D breast
SNB-75 CNS = tested on: SNB-75 CNS
KM12 colon = tested on: KM12 colon
HCC-2998 colon = tested on: HCC-2998 colon
A549 NSCLC = tested on: A549 NSCLC
M14 melanoma = tested on: M14 melanoma
SK-MEL-5 melanoma = tested on: SK-MEL-5 melanoma
SF-539 CNS = tested on: SF-539 CNS
PC-3 prostate = tested on: PC-3 prostate

Clc1ccc(C(Cn2ccnc2)OCc2ccsc2Cl)c(Cl)c1 (stereo not given)
TGI (UO-31 renal): 11.1 µM
GI50 (NCI-H460 lung): 2.84 µM
TGI (NCI-H460 lung): 10.1 µM
GI50 (HS 578T breast): 4.44 µM
TGI (HS 578T breast): > 100 µM
GI50 (U251 CNS): 2.79 µM
TGI (U251 CNS): 11.2 µM
GI50 (A498 renal): 2.33 µM
TGI (A498 renal): 13.9 µM
GI50 (BT-549 breast): 2.92 µM
TGI (BT-549 breast): 9.01 µM
GI50 (SK-OV-3 ovarian): 5.08 µM
TGI (SK-OV-3 ovarian): 16.8 µM
GI50 (TK-10 renal): 3.31 µM
TGI (TK-10 renal): 11.2 µM
GI50 (SN12C renal): 4.74 µM
TGI (SN12C renal): 18.7 µM
GI50 (HOP-92 NSCLC): 1.6 µM
TGI (HOP-92 NSCLC): 5.93 µM
GI50 (MALME-3M melanoma): 2.62 µM
TGI (MALME-3M melanoma): 8.62 µM
GI50 (RPMI-8226 leukemia): 1.81 µM
TGI (RPMI-8226 leukemia): 5.53 µM
GI50 (NCI-H23 lung): 2.18 µM
TGI (NCI-H23 lung): 8.77 µM
GI50 (OVCAR-4 ovarian): 2.34 µM
TGI (OVCAR-4 ovarian): 12.7 µM
GI50 (CAKI-1 renal): 2.05 µM
TGI (CAKI-1 renal): 7.36 µM
GI50 (HCT-15 colon): 3.95 µM
TGI (HCT-15 colon): 14.2 µM
GI50 (ACHN renal): 4.17 µM
TGI (ACHN renal): 15 µM
GI50 (HT29 colon): 2.73 µM
TGI (HT29 colon): 9.34 µM
GI50 (MDA-MB-231 breast): 4.34 µM
TGI (MDA-MB-231 breast): 18.6 µM
GI50 (T-47D breast): 4.04 µM
TGI (T-47D breast): 16.9 µM
GI50 (SNB-75 CNS): 2.32 µM
TGI (SNB-75 CNS): 8.22 µM
GI50 (KM12 colon): 3.01 µM
TGI (KM12 colon): 13.5 µM
GI50 (HCC-2998 colon): 2.73 µM
TGI (HCC-2998 colon): 9.46 µM
GI50 (A549 NSCLC): 3.12 µM
TGI (A549 NSCLC): 14.2 µM
GI50 (M14 melanoma): 2.72 µM
TGI (M14 melanoma): 8.27 µM
GI50 (SK-MEL-5 melanoma): 1.91 µM
TGI (SK-MEL-5 melanoma): 4.21 µM
GI50 (SF-539 CNS): 4.23 µM
TGI (SF-539 CNS): 14.9 µM
GI50 (PC-3 prostate): 2.07 µM
TGI (PC-3 prostate): 7.62 µM
